Measurements from patent US12428401B2, “Salt of an aminopyridine derivative compound, a crystalline form thereof, and a process for preparing the same” (Yuhan Corporation, priority 2017, dated 2025).
Values joined by “and” are separate entries in the source; they are usually repeats but may differ in a detail not shown here. Equal values may be shown once. Read-outs that look alike come from different tables or passages of the source.

Key:
[1] = Pharmacokinetic comparison test in beagle dogs; type: in vivo
Description: A comparison of the pharmacokinetic parameters (i.e., the maximum plasma concentration and the area under the plasma concentration curve) calculated therefrom are shown in Table 8 and FIG. 14.

[2] = Pharmacokinetic comparison test in normal rats; type: in vivo, rats (SD rats); details: normal rats
Description: (§1) Specifically, the maximum plasma concentration (Cmax) and the area under the plasma concentration curve (AUClast) in the normal rats and the rats treated with esomeprazole were compared to evaluate the absorption of the drugs in the actual animals.
(§2) In order to compare the pharmacokinetic parameters, 8-week old male rats (SD rats) with a body weight of about 250 g were used as test animals.

[3] = Pharmacokinetic comparison test in rats treated with esomeprazole; type: in vivo, rats (SD rats)
Description: as §1, §2
A comparison of the pharmacokinetic parameters (i.e., the maximum plasma concentration and the area under the plasma concentration curve) calculated therefrom are shown in Table 7 and FIGS. 12 and 13.

[4] = accelerated conditions; for Content / Purity: HPLC; for Content Change / Purity Change / Water content Change: start to 6 months
Description: The five compounds were tested for stability under stress conditions and accelerated conditions.

[5] = Stability test under stress conditions (PXRD, DSC, appearance, HPLC); details: stress conditions; for Content / Purity: HPLC; for Content Change / Purity Change / Water content Change: start to 4 weeks
[6] = Rats treated with esomeprazole (i.v. 5 mg/2 mL/kg for 3 days), oral 30 mg/5 ml/kg
[7] = esomeprazole-treated vs normal rats, listed as Comparative Example 1

## C=CC(=O)Nc1cc(Nc2nccc(-n3cc(CN(C)C)c(-c4ccccc4)n3)n2)c(OC)cc1N1CCOCC1 [C. Ex. 1, N-(5-(4-(4-((dimethylamino)methyl)-3-phenyl-1H-pyrazol-1-yl)pyrimidine-2-ylamino)-4-methoxy-2-morpholinophenyl)acrylamide]
[1]
  Area under the plasma concentration curve lower than that of the mesylate salt form (Example 1): 50.4%
  Maximum plasma concentration lower than that of the mesylate salt form (Example 1): 40.1%
[2]
  Area under the plasma concentration curve lower than that of the mesylate salt form (Example 1): 10.4%
  Maximum plasma concentration lower than that of the mesylate salt form (Example 1): 11.0%
[3]; [6]
  Area under the plasma concentration curve (AUClast): 2636.7 ng·h/mL
  Maximum plasma concentration (Cmax): 223.0 ng/mL
[3]; [7]
  Area under the plasma concentration curve reduced in the esomeprazole-treated rats as compared with the normal rats: 63.8%
  Maximum plasma concentration reduced in the esomeprazole-treated rats as compared with the normal rats: 69.3%
[3]; rats treated with esomeprazole
  Area under the plasma concentration curve lower than that of the mesylate salt form (Example 1): 49.4%
  Maximum plasma concentration lower than that of the mesylate salt form (Example 1): 47.8%

## C=CC(=O)Nc1cc(Nc2nccc(-n3cc(CN(C)C)c(-c4ccccc4)n3)n2)c(OC)cc1N1CCOCC1.Cl [C. Ex. 2, Hydrochloride Salt of N-(5-(4-(4-((dimethylamino)methyl)-3-phenyl-1H-pyrazol-1-yl)pyrimidine-2-ylamino)-4-methoxy-2-morpholinophenyl)acrylamide]
[4]; 1 mo
  Appearance (color): Y
  DSC onset: 272 °C
  Water content: 0.98%
  Content: 97.0%
  Purity: 99.0%
[4]; 3 mos
  Appearance (color): Y
  DSC onset: 271 °C
  Water content: 1.47%
  Content: 98.3%
  Purity: 98.9%
[4]; 6 mos
  DSC onset: 271 °C
  Water content: 1.28%
  Content: 97.6%
  Purity: 98.8%
[4]; Start
  Purity: 99.0%
  Appearance (color): Y
  Water content: 0.86%
[4]
  Content Change: +0.2%
  Purity Change: −0.2%
  Water content Change: +0.42%
[5]; 2 weeks
  DSC onset: 269 °C
  Water content: 1.23%
  Content: 96.2%
  Purity: 99.1%
[5]; 4 weeks
  DSC onset: 269 °C
  Water content: 1.44%
  Content: 95.2%
  Purity: 99.1%
[5]; Start
  Content: 97.4%
  Purity: 99.0%
  Appearance (color): Yellow
  DSC onset: 267 °C
  Water content: 0.86%
[5]
  Content Change: −2.2%
  Purity Change: +0.1%
  Water content Change: +0.58%

## C=CC(=O)Nc1cc(Nc2nccc(-n3cc(CN(C)C)c(-c4ccccc4)n3)n2)c(OC)cc1N1CCOCC1.O=C(O)CC(O)(CC(=O)O)C(=O)O [C. Ex. 3, Citrate Salt of N-(5-(4-(4-((dimethylamino)methyl)-3-phenyl-1H-pyrazol-1-yl)pyrimidine-2-ylamino)-4-methoxy-2-morpholinophenyl)acrylamide]
[4]; 1 mo
  Water content: 0.83%
  Content: 100.5%
  Purity: 98.9%
[4]; 3 mos
  DSC onset: 180 °C
  Water content: 3.05%
  Content: 101.0%
  Purity: 98.9%
[4]; 6 mos
  DSC onset: 183 °C
  Water content: 3.50%
  Content: 98.7%
  Purity: 97.7%
[4]; Start
  Content: 100.0%
  Purity: 99.2%
  Water content: 0.65%
[4]
  Content Change: −1.3%
  Purity Change: −1.5%
  Water content Change: +2.85%
[5]; 2 weeks
  DSC onset: 182 °C
  Water content: 0.62%
  Content: 98.9%
  Purity: 98.8%
[5]; 4 weeks
  DSC onset: 181 °C
  Water content: 1.47%
  Content: 98.6%
  Purity: 98.7%
[5]; Start
  Content: 100.0%
  Purity: 99.2%
  DSC onset: 182 °C
  Water content: 0.65%
[5]
  Content Change: −1.4%
  Purity Change: −0.5%
  Water content Change: +0.82%

## C=CC(=O)Nc1cc(Nc2nccc(-n3cc(CN(C)C)c(-c4ccccc4)n3)n2)c(OC)cc1N1CCOCC1.CCS(=O)(=O)O [C. Ex. 4, Esilate Salt of N-(5-(4-(4-((dimethylamino)methyl)-3-phenyl-1H-pyrazol-1-yl)pyrimidine-2-ylamino)-4-methoxy-2-morpholinophenyl)acrylamide]
[4]; 1 mo
  DSC onset: 222 °C
  Water content: 2.48%
  Content: 96.1%
  Purity: 99.1%
[4]; 3 mos
  Water content: 2.98%
  Content: 95.1%
  Purity: 99.0%
[4]; 6 mos
  DSC onset: 218 °C
  Water content: 3.17%
  Content: 91.4%
  Purity: 98.4%
[4]; Start
  Purity: 99.5%
  Appearance (color): Y
[4]
  Content Change: −5.1%
  Purity Change: −1.1%
  Water content Change: +2.02%
[5]; 2 weeks
  DSC onset: 222, ° C. and 227 °C
  Water content: 1.37%
  Content: 94.7%
  Purity: 99.0%
[5]; 4 weeks
  Appearance (color): Violet
  DSC onset: 172, ° C. and 193, ° C. and 219 °C
  Water content: 3.81%
  Content: 89.5%
  Purity: 98.9%
[5]; Start
  Content: 96.5%
  Appearance (color): Yellow
  DSC onset: 223 °C
  Water content: 1.15%
[5]
  Content Change: −7%
  Purity Change: −0.6%
  Water content Change: +2.03%
